Key:
Assay type in all cases: functional
LOX IMVI = assay: Cytotoxicity against human LOXIMVI cells assessed as cellular growth at 0.01 uM after 48 hrs by SRB assay relative to control
SNB-19 = assay: Cytotoxicity against human SNB19 cells assessed as cellular growth at 0.01 uM after 48 hrs by SRB assay relative to control
COLO 205 = assay: Cytotoxicity against human COLO205 cells assessed as cellular growth at 0.01 uM after 48 hrs by SRB assay relative to control
NCI-H226 [1] = assay: Cytotoxicity against human NCI-H226 cells assessed as cellular growth at 0.01 uM after 48 hrs by SRB assay relative to control
SN12C = assay: Cytotoxicity against human SN12C cells assessed as cellular growth at 100 uM after 48 hrs by SRB assay relative to control
ACHN = assay: Cytotoxicity against human ACHN cells assessed as cellular growth at 100 uM after 48 hrs by SRB assay relative to control
UACC-62 [2] = assay: Cytotoxicity against human UACC62 cells assessed as cellular growth at 100 uM after 48 hrs by SRB assay relative to control
SNB-75 = assay: Cytotoxicity against human SNB75 cells assessed as cellular growth at 100 uM after 48 hrs by SRB assay relative to control
SF-539 = assay: Cytotoxicity against human SF539 cells assessed as cellular growth at 100 uM after 48 hrs by SRB assay relative to control
NCI-H226 [3] = assay: Cytotoxicity against human NCI-H226 cells assessed as cellular growth at 100 uM after 48 hrs by SRB assay relative to control
IGROV-1 = assay: Cytotoxicity against human IGROV1 cells at 10 uM after 48 hrs by SRB assay
UO-31 = assay: Cytotoxicity against human UO31 cells assessed as cellular growth at 1 uM after 48 hrs by SRB assay relative to control
RXF 393 [4] = assay: Cytotoxicity against human RXF393 cells assessed as cellular growth at 1 uM after 48 hrs by SRB assay relative to control
SK-MEL-28 = assay: Cytotoxicity against human SK-MEL-28 cells assessed as cellular growth at 1 uM after 48 hrs by SRB assay relative to control
M14 = assay: Cytotoxicity against human M14 cells assessed as cellular growth at 1 uM after 48 hrs by SRB assay relative to control
Malme-3M = assay: Cytotoxicity against human MALME-3M cells assessed as cellular growth at 1 uM after 48 hrs by SRB assay relative to control
SF-295 [5] = assay: Cytotoxicity against human SF295 cells assessed as cellular growth at 1 uM after 48 hrs by SRB assay relative to control
A549 = assay: Cytotoxicity against human A549 cells assessed as cellular growth at 1 uM after 48 hrs by SRB assay relative to control
T47D [6] = assay: Cytotoxicity against human T47D cells assessed as cellular growth at 0.1 uM after 48 hrs by SRB assay relative to control
BT-549 [7] = assay: Cytotoxicity against human BT549 cells after 48 hrs by SRB assay; settings: BT-549, 48 h
T47D [8] = assay: Cytotoxicity against human T47D cells after 48 hrs by SRB assay
786-0 = assay: Cytotoxicity against human 786-0 cells after 48 hrs by SRB assay; settings: 786-0, 48 h
SK-OV-3 = assay: Cytotoxicity against human SKOV3 cells after 48 hrs by SRB assay; settings: SK-OV-3, 48 h
OVCAR-3 = assay: Cytotoxicity against human OVCAR3 cells after 48 hrs by SRB assay; settings: OVCAR-3, 48 h
SF-295 [9] = assay: Cytotoxicity against human SF295 cells after 48 hrs by SRB assay; settings: SF-295, 48 h
NCI-H23 = assay: Cytotoxicity against human NCI-H23 cells after 48 hrs by SRB assay; settings: NCI-H23, 48 h
[10] = Cytotoxicity against human EKVX cells after 48 hrs by SRB assay
MDA-MB-231 [11] = assay: Cytotoxicity against human MDA-MB-231 cells assessed as cellular growth at 0.1 uM after 48 hrs by SRB assay relative to control
TK-10 = assay: Cytotoxicity against human TK10 cells assessed as cellular growth at 0.1 uM after 48 hrs by SRB assay relative to control
RXF 393 [12] = assay: Cytotoxicity against human RXF393 cells assessed as cellular growth at 0.1 uM after 48 hrs by SRB assay relative to control
UACC-62 [13] = assay: Cytotoxicity against human UACC62 cells assessed as cellular growth at 0.1 uM after 48 hrs by SRB assay relative to control
HOP-62 = assay: Cytotoxicity against human HOP62 cells assessed as cellular growth at 0.1 uM after 48 hrs by SRB assay relative to control
BT-549 [14] = assay: Cytotoxicity against human BT549 cells assessed as cellular growth at 0.01 uM after 48 hrs by SRB assay relative to control
MDA-MB-231 [15] = assay: Cytotoxicity against human MDA-MB-231 cells assessed as cellular growth at 0.01 uM after 48 hrs by SRB assay relative to control
[16] = read-out: LC50 (the source's name)
[17] = read-out: pLC50 (the source's name) (converted)

**Q.** Which results are given for `O=C(CCCn1c2c(sc3ccccc32)c(=O)n2nnc(-c3ccccc3)c12)NCCc1c[nH]cn1`?
**A.** Activity (LOX IMVI): 103%; Activity (SNB-19): 94%; Activity (COLO 205): 87%; Activity (NCI-H226 [1]): 97%; Activity (SN12C): -100%; Activity (ACHN): -100%; Activity (UACC-62 [2]): -100%; Activity (SNB-75): -96%; Activity (SF-539): -99%; Activity (NCI-H226 [3]): -72%; Activity (IGROV-1): -89%; Activity (UO-31): 69%; Activity (RXF 393 [4]): 113%; Activity (SK-MEL-28): 92%; Activity (M14): 33%; Activity (Malme-3M): 81%; Activity (SF-295 [5]): 39%; Activity (A549): 64%; Activity (T47D [6]): 55%; GI50 (BT-549 [7]; read-out: GI50): 3.32 µM; LC50 (concentration killing 50% of cells) (BT-549 [7]; read-out: LC50): 51.5 µM; TGI (BT-549 [7]; read-out: TGI): 11.4 µM; GI50 (BT-549 [7]; read-out: pGI50 (converted)): 3.31 µM; LC50 (concentration killing 50% of cells) (BT-549 [7]; read-out: pLC50 (converted)): 51.3 µM; TGI (BT-549 [7]; read-out: pTGI (converted)): 11.5 µM; GI50 (T47D [8]; read-out: GI50): 1.27 µM; CC50 (T47D [8]; [16]): 30.6 µM; TGI (T47D [8]; read-out: TGI): 6.37 µM; GI50 (T47D [8]; read-out: pGI50 (converted)): 1.26 µM; CC50 (T47D [8]; [17]): 30.9 µM; TGI (T47D [8]; read-out: pTGI (converted)): 6.31 µM; GI50 (786-0; read-out: GI50): 1.05 µM; CC50 (786-0; [16]): 5.34 µM; TGI (786-0; read-out: TGI): 2.37 µM; GI50 (786-0; read-out: pGI50 (converted)): 1.05 µM; CC50 (786-0; [17]): 5.37 µM; TGI (786-0; read-out: pTGI (converted)): 2.34 µM; GI50 (SK-OV-3; read-out: GI50): 2.39 µM; CC50 (SK-OV-3; [16]): 29.2 µM; TGI (SK-OV-3; read-out: TGI): 8.5 µM; GI50 (SK-OV-3; read-out: pGI50 (converted)): 2.4 µM; CC50 (SK-OV-3; [17]): 29.5 µM; TGI (SK-OV-3; read-out: pTGI (converted)): 8.51 µM; GI50 (OVCAR-3; read-out: GI50): 1.66 µM; CC50 (OVCAR-3; [16]): 5.66 µM; TGI (OVCAR-3; read-out: TGI): 3.07 µM; GI50 (OVCAR-3; read-out: pGI50 (converted)): 1.66 µM; CC50 (OVCAR-3; [17]): 5.62 µM; TGI (OVCAR-3; read-out: pTGI (converted)): 3.09 µM; GI50 (SF-295 [9]; read-out: GI50): 0.456 µM; CC50 (SF-295 [9]; [16]): 5.41 µM; TGI (SF-295 [9]; read-out: TGI): 2.11 µM; GI50 (SF-295 [9]; read-out: pGI50 (converted)): 0.457 µM; CC50 (SF-295 [9]; [17]): 5.37 µM; TGI (SF-295 [9]; read-out: pTGI (converted)): 2.09 µM; GI50 (NCI-H23; read-out: GI50): 1.34 µM; TGI (NCI-H23; read-out: TGI): 3.52 µM; GI50 (NCI-H23; read-out: pGI50 (converted)): 1.35 µM; TGI (NCI-H23; read-out: pTGI (converted)): 3.55 µM; GI50 ([10]; read-out: GI50): 2.5 µM; CC50 [10, 16]: > 100 µM; TGI ([10]; read-out: TGI): 15.8 µM; GI50 ([10]; read-out: pGI50 (converted)): 2.51 µM; CC50 [10, 17]: > 100 µM; TGI ([10]; read-out: pTGI (converted)): 15.8 µM; Activity (MDA-MB-231 [11]): 109%; Activity (TK-10): 93%; Activity (RXF 393 [12]): 125%; Activity (UACC-62 [13]): 96%; Activity (HOP-62): 80%; Activity (BT-549 [14]): 100%; Activity (MDA-MB-231 [15]): 115%

**Q.** Which results are given for `CN1CCN(CCCn2c3c(sc4ncccc43)c(=O)n3nnc(-c4ccccc4)c23)CC1`?
**A.** Activity (LOX IMVI): 93%; Activity (SNB-19): 101%; Activity (COLO 205): 95%; Activity (NCI-H226 [1]): 95%; Activity (SN12C): -47%; Activity (ACHN): -80%; Activity (UACC-62 [2]): -74%; Activity (SNB-75): -94%; Activity (SF-539): -69%; Activity (NCI-H226 [3]): -79%; Activity (IGROV-1): -51%; Activity (UO-31): 51%; Activity (RXF 393 [4]): 93%; Activity (SK-MEL-28): 99%; Activity (M14): 97%; Activity (Malme-3M): 105%; Activity (SF-295 [5]): 103%; Activity (A549): 95%; Activity (T47D [6]): 100%; GI50 (BT-549 [7]; read-out: GI50): 14.7 µM; LC50 (concentration killing 50% of cells) (BT-549 [7]; read-out: LC50): 63.9 µM; TGI (BT-549 [7]; read-out: TGI): 30.7 µM; GI50 (BT-549 [7]; read-out: pGI50 (converted)): 14.8 µM; LC50 (concentration killing 50% of cells) (BT-549 [7]; read-out: pLC50 (converted)): 64.6 µM; TGI (BT-549 [7]; read-out: pTGI (converted)): 30.9 µM; GI50 (T47D [8]; read-out: GI50): 19.7 µM; CC50 (T47D [8]; [16]): 71.6 µM; TGI (T47D [8]; read-out: TGI): 37.6 µM; GI50 (T47D [8]; read-out: pGI50 (converted)): 20 µM; CC50 (T47D [8]; [17]): 70.8 µM; TGI (T47D [8]; read-out: pTGI (converted)): 38 µM; GI50 (786-0; read-out: GI50): 1.87 µM; CC50 (786-0; [16]): 6.56 µM; TGI (786-0; read-out: TGI): 3.5 µM; GI50 (786-0; read-out: pGI50 (converted)): 1.86 µM; CC50 (786-0; [17]): 6.61 µM; TGI (786-0; read-out: pTGI (converted)): 3.47 µM; GI50 (SK-OV-3; read-out: GI50): 18.7 µM; CC50 (SK-OV-3; [16]): 59.6 µM; TGI (SK-OV-3; read-out: TGI): 33.4 µM; GI50 (SK-OV-3; read-out: pGI50 (converted)): 18.6 µM; CC50 (SK-OV-3; [17]): 60.3 µM; TGI (SK-OV-3; read-out: pTGI (converted)): 33.1 µM; GI50 (OVCAR-3; read-out: GI50): 1.81 µM; CC50 (OVCAR-3; [16]): 6.68 µM; TGI (OVCAR-3; read-out: TGI): 3.48 µM; GI50 (OVCAR-3; read-out: pGI50 (converted)): 1.82 µM; CC50 (OVCAR-3; [17]): 6.61 µM; TGI (OVCAR-3; read-out: pTGI (converted)): 3.47 µM; GI50 (SF-295 [9]; read-out: GI50): 1.96 µM; CC50 (SF-295 [9]; [16]): 6.96 µM; TGI (SF-295 [9]; read-out: TGI): 3.7 µM; GI50 (SF-295 [9]; read-out: pGI50 (converted)): 1.95 µM; CC50 (SF-295 [9]; [17]): 6.92 µM; TGI (SF-295 [9]; read-out: pTGI (converted)): 3.72 µM; GI50 (NCI-H23; read-out: GI50): 2.14 µM; CC50 (NCI-H23; [16]): 33.7 µM; TGI (NCI-H23; read-out: TGI): 5.07 µM; GI50 (NCI-H23; read-out: pGI50 (converted)): 2.14 µM; CC50 (NCI-H23; [17]): 33.9 µM; TGI (NCI-H23; read-out: pTGI (converted)): 5.13 µM; GI50 ([10]; read-out: GI50): 2.12 µM; CC50 [10, 16]: 15.7 µM; TGI ([10]; read-out: TGI): 4.9 µM; GI50 ([10]; read-out: pGI50 (converted)): 2.14 µM; CC50 [10, 17]: 83.2 µM; TGI ([10]; read-out: pTGI (converted)): 4.9 µM; Activity (MDA-MB-231 [11]): 100%; Activity (TK-10): 99%; Activity (RXF 393 [12]): 93%; Activity (UACC-62 [13]): 79%; Activity (HOP-62): 84%; Activity (BT-549 [14]): 99%; Activity (MDA-MB-231 [15]): 100%
